The text below walks through data of US11185593B2, “Alkylating agent for alkylating target with driver oncogene mutation” (Chiba Prefecture, priority 2013, dated 2021).

The nature of series [1]: Mass spectrometry of mouse urine and mouse bile for KR12 and decomposed product. Format: in vivo. The protocol: The FITC-labeled KR12 (10 nmol) was administered into the vein of nude mice, into which SW480 cells had been transplanted, and thereafter, their fluorescent image was observed over time. […] Thereafter, twenty-four hours after the administration, the mice were dissected, and incorporation of FITC into various organs was observed. […] Furthermore, localization of KR12 in the cells of tumor, liver, and kidney was observed under a fluorescence microscope. […] The presence of absence of HR12 and a decomposed product thereof in mouse urine and mouse bile was examined by mass spectrometry. […] In the case of tumor cells, lipids are required for the synthesis of a cell membrane or the like, together with cell division, and thus, in general, incorporation of lipids is increased. In addition, excretion via the lymphatics is undeveloped. […] Such accumulation of KR12 in the liver and the kidney is observed even in normal cells. However, since KR12 cannot retain in the cells, it is discharged into bile and/or urine, and is then excreted from these organs. That is, KR12 has excellent effects that it is promptly discharged from normal cells and retains in cancer cells for a long period of time.

In series [2] the test system is colon cancer and pancreatic cancer cell lines. Nature of the series: Cytotoxicity test on various cancer cells, summary by KRAS codon 12 status. Format: cell-based. The note with it: Homo sapiens. Here is the method: Using colon cancer and pancreatic cancer cell lines, the cells were seeded in each well of a 96-well microplate, resulting in a cell density of 3000 to 5000 cells/well, and they were then cultured overnight. On the following day, the cells of each type were treated with KR12 recognizing a codon 12 mutation in concentrations of 1 nM, 10 nM, 30 nM, 100 nM, 300 nM, and 1 μM for 48 hours. Thereafter, a WST-8 reagent was added to each well, using cell counting kit-8, and the obtained mixture was then reacted for 2 hours. After that, the number of cells was counted at a wavelength of 450 nm according to a colorimetric analysis method using a microplate reader. The method of counting the number of cells comprises: 1) obtaining the mean value of the medium alone, 2) subtracting the mean value of the medium from each well, 3) obtaining the mean value of DMSO, 4) dividing the medium-subtracted value by the mean value of DMSO and then multiplying by 100, 5) obtaining the mean value of each treatment group and a standard deviation, and then preparing a graph. The calculation formula of IC50 is the following: IC50=10 (LOG (A/B)×(50−C)/(D−C)+LOG (B)), wherein A: a higher concentration of two concentrations sandwiching 50%, B: a lower concentration of two concentrations sandwiching 50%, C: inhibitory percentage at B, and D: inhibitory percentage at A. […]

For `CC(=O)Nc1cn(C)c(C(=O)Nc2cc(C(=O)NCCC(=O)Nc3cn(C)c(C(=O)Nc4cn(C)c(C(=O)Nc5cc(C(=O)Nc6cn(C)c(C(=O)NCCCC(=O)Nc7cc(C(=O)Nc8cn(C)c(C(=O)NCCC(=O)Nc9cc(C(=O)Nc%10cc(C(=O)Nc%11ccc%12[nH]c(C(=O)N%13CC(CCl)c%14c%13cc(O)c%13ccccc%14%13)cc%12c%11)n(C)c%10)n(C)c9)n8)n(C)c7)n6)n(C)c5)n4)n3)n(C)c2)n1` (stereo not drawn) [KR12], the “metabolic degradation of excreted compound” value in series [1] is given as “discharged in a state in which it was not subjected to metabolic degradation”. For the same molecule, the IC50 was no less than 100 nM in series [2] (SW1463, DLD-1, HT-29 and Caco-2, cell lines which do not have a codon 12 mutation recognized by KR12); no more than 100 nM in series [2] (cell lines having a codon 12 mutation, which is recognized by KR12).
